In patent publication US10245264B2, “Substituted imidazo[1,2-a]pyrazines as soluble guanylate cyclase activators” (Merck Sharp & Dohme Corp., priority 2015, dated 2019):

Target: T1, sGC α1/β1 heterodimer stably expressed in CHO-K1 cells (CHO-K1/sGC) (Homo sapiens, UniProt Q02108+Q02153)
T1 construct: expressed in transfected cells
T1 sequence (Q02108 1-690): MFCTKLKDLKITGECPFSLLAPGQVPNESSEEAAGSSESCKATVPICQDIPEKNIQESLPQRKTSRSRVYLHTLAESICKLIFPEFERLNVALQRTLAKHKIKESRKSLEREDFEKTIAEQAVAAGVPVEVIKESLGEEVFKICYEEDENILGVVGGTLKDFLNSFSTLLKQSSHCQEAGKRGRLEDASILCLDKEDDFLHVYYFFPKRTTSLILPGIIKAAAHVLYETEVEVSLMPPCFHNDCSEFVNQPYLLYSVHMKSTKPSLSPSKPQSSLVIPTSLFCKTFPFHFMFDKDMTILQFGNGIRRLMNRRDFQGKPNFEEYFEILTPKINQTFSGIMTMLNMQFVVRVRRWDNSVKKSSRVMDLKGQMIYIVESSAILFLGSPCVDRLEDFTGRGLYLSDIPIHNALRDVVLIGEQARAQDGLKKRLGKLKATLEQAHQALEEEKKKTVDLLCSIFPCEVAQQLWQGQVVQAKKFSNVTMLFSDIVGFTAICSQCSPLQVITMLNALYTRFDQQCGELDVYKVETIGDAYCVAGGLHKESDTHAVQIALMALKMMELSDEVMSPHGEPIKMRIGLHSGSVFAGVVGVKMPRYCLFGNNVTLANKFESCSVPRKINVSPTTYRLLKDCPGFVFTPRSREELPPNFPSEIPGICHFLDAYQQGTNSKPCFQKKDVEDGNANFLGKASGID
T1 sequence (Q02153 1-619): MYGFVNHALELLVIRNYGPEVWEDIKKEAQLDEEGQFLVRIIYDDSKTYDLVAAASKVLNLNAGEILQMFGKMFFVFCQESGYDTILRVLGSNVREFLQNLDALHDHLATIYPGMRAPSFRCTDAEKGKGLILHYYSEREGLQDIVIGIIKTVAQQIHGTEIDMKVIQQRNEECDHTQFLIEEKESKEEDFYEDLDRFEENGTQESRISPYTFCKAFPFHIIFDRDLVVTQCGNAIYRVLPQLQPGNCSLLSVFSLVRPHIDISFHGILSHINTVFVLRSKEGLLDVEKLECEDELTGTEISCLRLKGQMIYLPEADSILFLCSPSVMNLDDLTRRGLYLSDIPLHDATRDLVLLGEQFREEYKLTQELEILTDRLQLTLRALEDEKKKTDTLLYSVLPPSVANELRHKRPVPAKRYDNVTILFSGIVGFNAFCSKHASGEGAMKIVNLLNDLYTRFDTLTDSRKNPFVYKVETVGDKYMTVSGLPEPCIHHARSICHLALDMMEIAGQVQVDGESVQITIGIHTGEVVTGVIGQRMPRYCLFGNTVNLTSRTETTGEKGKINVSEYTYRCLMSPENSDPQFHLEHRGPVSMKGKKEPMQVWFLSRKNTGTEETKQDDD
Assay: Cell-based sGC functional assay (CASA assay), cGMP generation by HTRF
Settings: for Emax: CHO-K1, maximum cGMP production of Compound A set to 100% activation, read-out: % Act. (percent activation relative to Compound A); for EC50: CHO-K1/sGC cells, 1 hr at 37° C., 4P fit, presence or absence of DETA-NO not given, read-out: IP (nM) (inflection point); for % Act. (percent activation relative to Compound A): maximum cGMP production of Compound A set to 100% activation
Excerpt: Biological Assay 1: Cell-Based sGC Functional Assay (CASA Assay) Rationale
sGC is a heme-containing enzyme that converts GTP to secondary messenger cGMP. Increases in cGMP levels affect several physiological processes including vasorelaxation through multiple downstream pathways. […] Heme-dependent activators (HDAs) preferentially activate sGC containing a ferrous heme group. To determine the effect of sGC activators on enzyme activity, the CASA assay was developed to monitor the generation of cGMP in a cell line that stably expresses the heterodimeric sGC protein.
A CHO-K1 cell line stably expressing the sGC α1/β1 heterodimer was generated using a standard transfection protocol. CHO-K1 cells were transfected with plasmids pIREShyghsGCα1 and pIRESneo-hsGCβ1 simultaneously using FUGENE reagent. Clones that stably express both subunits were selected with hygromycin and neomycin for ˜2 weeks. Clone #7 was chosen for the assay and was designated CHO-K1/sGC. CHO-K1/sGC cells were maintained in F-K12 medium containing 10% heat-inactivated Fetal Bovine Serum (FBS), 100 μg/mL penicillin/streptomycin, 0.5 mg/mL hygromycin and 0.25 mg/mL G418. The cells were then cryopreserved in LN2. On the day of the assay, cells were thawed and resuspended in EBSS Assay Buffer (Sigma, E3024) supplemented with 5 mM MgCl2, 10 mM HEPES (4-(2-hydroxyethyl)piperazine-1-ethanesulfonic acid) and 0.05% BSA (bovine serum albumin) (EAB) and cell density was then adjusted to 4×10^5/mL with EAB. IBMX (3-isobutyl-1-methylxanthin, 0.5 mM) was added to inhibit degradation of cGMP. Compounds were diluted from DMSO stock solutions and added to the assay at a final DMSO concentration of 2.5%. Cells were incubated with compounds in the presence and absence of 1 μM of Diethylenetriamine/nitric oxide adduct (DETA-NO; Sigma, 17018) for 1 hr at 37° C. At the end of the incubation period, the reaction was terminated and the cells were lysed with the detection reagents from Cisbio Kits. The level of intracellular cGMP was determined using an HTRF-based assay kit (CisBio, 62GM2PEC), which detects the displacement of a fluorescence labeled cGMP from its specific antibody. The cGMP produced by test compounds was directly compared to the maximum cGMP production (this value was set to equal 100% activation.) of the published sGC-HDA Compound A:
[drawing 101] (Example 1 in WO 2010/065275, published Jun. 10, 2010). The test compounds' activities were then expressed as a percentage of Compound A, the standard in every experiment. This percent activation was calculated either in the presence or absence of DETA-NO which was then plotted. IP and maximum fold induction was derived using ADA analysis software for 4P fit.
The compounds in the Examples of the instant invention had inflection points (IP) less than or equal to 10 μM and many had IPs less than or equal to about 1 μM.

Emax [%] | EC50 [nM] | % Act. (percent activation relative to Compound A) [%] | SMILES
67 | 73 |  | CC1(c2ccc(F)cc2)C(=O)Nc2nc(-c3cn4ccnc4c(SCCC(F)(F)F)n3)nc(N)c21 (stereo not drawn) [Example 64A, 4-amino-5-(4-fluorophenyl)-5-methyl-2-{8-[(3,3,3-trifluoro-propyl)sulfanyl]imidazo[1,2-a]pyrazin-6-yl}-5,7-dihydro-6H-pyrrolo[2,3-d] pyrimidin-6-one]
92 | 748 |  | CC1(c2ccc(F)cc2)C(=O)Nc2nc(-c3cn4cc(C5CC5)nc4c(Oc4cccc(F)c4)n3)nc(N)c21 (stereo not drawn) [Example 38A, 4-amino-2-[2-cyclopropyl-8-(3-fluorophenoxy)imidazo[1,2-a]pyrazin-6-yl]-5-(4-fluorophenyl)-5-methyl-5,7-dihydro-6H-pyrrolo[2,3-d] pyrimidin-6-one]
139 | 1160 |  | CC1(c2ccc(Cl)cc2)C(=O)Nc2nc(-c3cn4ccnc4c(OC4CCC(F)(F)CC4)n3)nc(N)c21 (stereo not drawn) [Example 28A, 4-amino-5-(4-chlorophenyl)-2-{8-[(4,4-difluorocyclohexyl)oxy]imidazo[1,2-a]pyrazin-6-yl}-5-methyl-5,7-dihydro-6H-pyrrolo[2,3-d] pyrimidin-6-one]
158 | 422 |  | CC1(c2ccc(F)cc2)C(=O)Nc2nc(-c3cn4ccnc4c(Oc4cccnc4)n3)nc(N)c21 (stereo not drawn) [Example 29A, 4-amino-5-(4-fluorophenyl)-5-methyl-2-[8-(pyridin-3-yloxy)imidazo[1,2-a]pyrazin-6-yl]-5,7-dihydro-6H-pyrrolo[2,3-d] pyrimidin-6-one]
94 | 644 |  | CC1(c2ccc(F)cc2)C(=O)Nc2nc(-c3cn4ccnc4c(OCCC4CC4(F)F)n3)nc(N)c21 (stereo not drawn) [Example 41A, 4-amino-2-{8-[2-(2,2-difluoro-cyclopropyl)ethoxy]imidazo[1,2-a]pyrazin-6-yl}-5-(4-fluorophenyl)-5-methyl-5,7-dihydro-6H-pyrrolo[2,3-d] pyrimidin-6-one]
107 | 80 |  | CC1(c2ccccc2)C(=O)Nc2nc(-c3cn4ccnc4c(Oc4ccccc4F)n3)nc(N)c21 (stereo not drawn) [Example 5B, 4-amino-2-[8-(2-fluorophenoxy)imidazo[1,2-a]pyrazin-6-yl]-5-methyl-5-phenyl-5,7-dihydro-6H-pyrrolo[2,3-d] pyrimidin-6-one]
108 | 912 |  | CC1(c2ccc(F)cc2)C(=O)Nc2nc(-c3cn4ccnc4c(OC4CCCC4)n3)nc(N)c21 (stereo not drawn) [Example 46A, 4-amino-2-[8-(cyclopentyl-oxy)imidazo [1,2-a]pyrazin-6-yl]-5-(4-fluorophenyl)-5-methyl-5,7-dihydro-6H-pyrrolo[2,3-d] pyrimidin-6-one]
119 | 1350 |  | CC1(c2ccc(F)cc2)C(=O)Nc2nc(-c3cn4ccnc4c(OCCC4CC(F)(F)C4)n3)nc(N)c21 (stereo not drawn) [Example 42A, 4-amino-2-{8-[2-(3,3-difluoro-cyclobutyl)ethoxy]imidazo[1,2-a]pyrazin-6-yl}-5-(4-fluorophenyl)-5-methyl-5,7-dihydro-6H-pyrrolo[2,3-d] pyrimidin-6-one]
86 | 324 |  | CC1(c2ccc(Cl)cc2)C(=O)Nc2nc(-c3cn4ccnc4c(OCC4CCCCO4)n3)nc(N)c21 (single isomer, unassigned; fast eluting) [Example 68A, 4-amino-5-(4-chlorophenyl)-5-methyl-2-[8-(tetrahydro-2H-pyran-2-ylmethoxy)imidazo[1,2-a]pyrazin-6-yl]-5,7-dihydro-6H-pyrrolo [2,3-d] pyrimidin-6-one (fast eluting)]
103 | 833 |  | C[C@H](Oc1nc(-c2nc(N)c3c(n2)NC(=O)C3(C)c2ccc(Cl)cc2)cn2ccnc12)c1ccccc1 (single isomer, unassigned; fast eluting) [Example 69A]
 | 231 | 87 | CC(Nc1nc(-c2nc(N)c3c(n2)NC(=O)C3(C)c2ccc(Cl)cc2)cn2ccnc12)c1ccccc1 (stereo not drawn) [Example 74, 4-amino-5-(4-chlorophenyl)-5-methyl-2-{8-[(1-phenylethyl)amino]imidazo [1,2-a]pyrazin-6-yl}-5,7-dihydro-6H-pyrrolo[2,3-d] pyrimidin-6-one]
 | 1710 | 115 | CC1(c2ccc(Cl)cc2)C(=O)Nc2nc(-c3cn4ccnc4c(OCC4CCCOC4)n3)nc(N)c21 (single isomer, unassigned; fast eluting) [Example 66A, 4-amino-5-(4-chlorophenyl)-5-methyl-2-[8-(tetrahydro-2H-pyran-3-ylmethoxy)imidazo[1,2-a]pyrazin-6-yl]-5,7-dihydro-6H-pyrrolo [2,3-d] pyrimidin-6-one (fast eluting)]
129 | 1470 |  | CC1(c2ccc(F)cc2)C(=O)Nc2nc(-c3cn4cc(C(F)(F)F)nc4c(Oc4ccccc4)n3)nc(N)c21 (stereo not drawn) [Example 36A, 4-amino-5-(4-fluorophenyl)-5-methyl-2-(8-phenoxy-2-(trifluoromethyl)imidazo[1,2-a]pyrazin-6-yl)-5H-pyrrolo[2,3-d] pyrimidin-6(7H)-one]
109 | 14 |  | CC1(c2ccccc2)C(=O)Nc2nc(-c3cn4ccnc4c(Oc4cccc(F)c4F)n3)nc(N)c21 (stereo not drawn) [Example 13B, 4-amino-2-[8-(2,3-difluoro-phenoxy)imidazo [1,2-a]pyrazin-6-yl]-5-methyl-5-phenyl-5,7-dihydro-6H-pyrrolo[2,3-d] pyrimidin-6-one]
167 | 701 |  | CC1(c2ccc(Cl)cc2)C(=O)Nc2nc(-c3cn4ccnc4c(NCC4CCOCC4)n3)nc(N)c21 (stereo not drawn) [Example 59A, 4-amino-5-(4-chlorophenyl)-5-methyl-2-{8-[(tetrahydro-2H-pyran-4-ylmethyl)amino]imidazo [1,2-a]pyrazin-6-yl}-5,7-dihydro-6H-pyrrolo[2,3-d] pyrimidin-6-one]
